Consider 27 compounds from patent US12391641B2, “Prostaglandin EP4 receptor antagonist compounds” (NXERA PHARMA UK LIMITED, priority 2019, dated 2025).

A value given as a limit tells only on which side of the number the result lay.

For the experiment, the target named is T1, Human prostaglandin E2 receptor 4 (EP4) (Homo sapiens, UniProt P35408).
T1 construct: expressed in transfected cells; host or cells: HEK293 cells transduced with EP4 BacMam virus
T1 sequence (P35408 whole entry): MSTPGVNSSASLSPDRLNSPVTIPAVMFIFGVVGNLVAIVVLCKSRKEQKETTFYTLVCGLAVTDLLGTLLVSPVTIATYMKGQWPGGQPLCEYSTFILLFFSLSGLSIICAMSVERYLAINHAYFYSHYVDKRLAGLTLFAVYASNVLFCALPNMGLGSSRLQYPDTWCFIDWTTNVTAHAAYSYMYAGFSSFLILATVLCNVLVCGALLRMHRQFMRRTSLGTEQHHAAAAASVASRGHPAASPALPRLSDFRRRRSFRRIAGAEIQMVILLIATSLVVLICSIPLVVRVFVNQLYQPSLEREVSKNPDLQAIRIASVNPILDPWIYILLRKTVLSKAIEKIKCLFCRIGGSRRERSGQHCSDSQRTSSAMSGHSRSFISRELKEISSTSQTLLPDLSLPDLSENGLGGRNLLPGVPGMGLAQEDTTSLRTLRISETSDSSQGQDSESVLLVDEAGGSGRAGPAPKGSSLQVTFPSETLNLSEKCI
The experiment in a line: cAMP Gs Functional Assay (HTRF cAMP dynamic-2), antagonism of PGE2. The following applies: HEK293 cells transfected with EP4 BacMam virus; PGE2 challenge at EC80 (7 nM); pIC50 converted to functional pKb with a modified Cheng Prussoff equation; read-out: Human EP4 fpKb (converted). It is filed as cell-based. Here is the method: Cloning, Baculovirus generation, large scale infection of HEK293 cells and membrane preparation: Human prostaglandin E2 receptor 4 (EP4) was cloned into pBacMam expression vector (GeneScript, UK). Transposition of EP4 DNA was performed using Invitrogen's Bac-to-Bac Baculovirus Expression Systems. P0 baculovirus was generated by transfecting SF9 Cells with bacmid DNA using Cellfectin II transfection reagent (ThermoFisher Scientific, UK, catalog number 10362-100). Following P0 generation P1 virus was then generated ready for large scale infection and membrane preparation. HEK293 cells were grown in DMEM+Glutamax, supplemented with 10% heat inactivated fetal bovine serum (FBS). Cells were infected at a seeding density of 3.5 million cells/mL in 500 cm^3 flasks at 5% v/v EP4 Bacman. Expression was carried out over 36 hr period at 37° C. with 5% CO2. The cells were removed using PBS and a cell scrapper. The cell culture was centrifuged at 2500 RPM for 10 mins at 4° C. The supernatant was then poured off and the pellet stored at −80° C. The pellet was defrosted and re-suspended in 15 mL of homogenising buffer (20 mM HEPES, 10 mM EDTA, pH 7.4). Then homogenised in mechanical homogeniser (VMR) for 10 seconds. The membrane was centrifuged in centrifuge tubes at 40,000 g for 15 mins at 4° C. The supernatant was poured away and re-suspended in 15 mL of homogenising buffer. Homogenised for 20 seconds. The membrane was centrifuged at 40,000 g for 45 mins at 4° C. The membrane was re-suspended in 3 mL of storage buffer (20 mM HEPES, 0.1 mM EDTA, pH 7.4) mixing well. The resulting membranes were then stored at −80° C.
cAMP Gs Functional Assay: cAMP production following EP4 receptor activation was determined using the Homogeneous Time-Resolved Fluorescence (HTRF) cAMP dynamic-2 assay (Cisbio, France). HEK293 cells were transfected using a 0.5% EP4 Bacman virus for 36 hours, before dissociating the cells, and freezing at […].
On the day of testing, increasing concentration of test compounds, alongside positive controls (1 uM ONO-AE3-208) and negative control (DMSO (Sigma-Aldrich, UK) were added to a ProxiPlate-384 Plus, White 384-shallow well Mircoplate, (PerkinElmer, USA) using the ECHO dispense.
Cells were defrosted in a water bath and resuspended in DMEM supplemented with 10% FBS before centrifuging at 1200 RPM for 5 mins to form a pellet. The pellet was resuspended in assay buffer (DMEM+0.5 mM IBMX (Tocris, Abingdon, UK, Catalog Number 2845)) to a 1×10^6 cells/mL. Cell suspension, for a final assay concentration of 5000 cell/well was added using the multidrop to the pre-dispensed assay plate. The plate was then incubated at 37° C. for 30 mins, with 5% CO2. After incubation, EC80 concentration (7 nM) of PGE2 (EP4 agonist) was added to the plate. In parallel, a PGE2 dose-response curve was dispense to a separate plate. Assay buffer was then dispensed on top. The cAMP production was determined as manufacturer's instructions, before plates were read on a PheraStar fluorescence plate reader (BMG LabTech, Germany).
The pIC50 was converted to a functional pKb value using a modified Cheng Prussoff equation where Kd=agonist EC50 and Lhot=agonist challenge concentration;
(In general: TR-FRET usually uses a lanthanide donor and a delayed reading to cut background.)
Take `CC(C)[C@@H](OCc1cccc(OC(F)(F)F)c1)C(=O)N[C@@H](C)c1ccc(C(=O)O)cc1` [Example 20, 4-((S)-1-((R)-3-methyl-2-((3-(trifluoromethoxy)benzyl)oxy)butanamido)ethyl)benzoic acid]: the Ki is 0.0955 nM.

Turning to `CC(C)[C@@H](OCc1ccc(C#N)cc1)C(=O)N[C@@H](C)c1ccc(C(=O)O)cc1` [Example 21, 4-((S)-1-((R)-2-((4-cyanobenzyl)oxy)-3-methylbutanamido)ethyl)benzoic acid], the Ki is 33.1 nM.

For the compound `CC(C)[C@@H](OCc1cccc(C#N)c1)C(=O)N[C@@H](C)c1ccc(C(=O)O)cc1` [Example 22, 4-((S)-1-((R)-2-((3-cyanobenzyl)oxy)-3-methylbutanamido)ethyl)benzoic acid], the Ki was 7.24 nM. Turning to `CC(C)[C@@H](OCc1ccc(OC(F)F)cc1)C(=O)N[C@@H](C)c1ccc(C(=O)O)cc1` [Example 23, 4-((S)-1-((R)-2-((4-(difluoromethoxy)benzyl)oxy)-3-methylbutanamido)ethyl)benzoic acid], the Ki is 14.5 nM.

As for `CC(C)[C@@H](OCc1cccc(OC(F)F)c1)C(=O)N[C@@H](C)c1ccc(C(=O)O)cc1` [Example 24, 4-((S)-1-((R)-2-((3-(difluoromethoxy)benzyl)oxy)-3-methylbutanamido)ethyl)benzoic acid], the Ki is 0.302 nM. With `CC(C)[C@@H](OCc1ccc(C(F)(F)F)cn1)C(=O)N[C@@H](C)c1ccc(C(=O)O)cc1` [Example 25, 4-((S)-1-((R)-3-methyl-2-((5-(trifluoromethyl)pyridin-2-yl)methoxy)butanamido)ethyl)benzoic acid] the figure was 13.8 nM. `CC(C)[C@@H](OCc1ccc(S(F)(F)(F)(F)F)cc1)C(=O)N[C@@H](C)c1ccc(C(=O)O)cc1` [Example 26, 4-((S)-1-((R)-3-methyl-2-((4-(pentafluoro-λ^6-sulfaneyl)benzyl)oxy)butanamido)ethyl)benzoic acid]: the Ki is 27.5 nM.

As to `CC(C)[C@@H](OCc1ccc(F)c(F)c1)C(=O)N[C@@H](C)c1ccc(C(=O)O)cc1` [Example 27, 4-((S)-1-((R)-2-((3,4-difluorobenzyl)oxy)-3-methylbutanamido)ethyl)benzoic acid], the Ki is 1.91 nM. Turning to `CC(C)[C@@H](OCc1ccc2c(c1)OC(F)(F)O2)C(=O)N[C@@H](C)c1ccc(C(=O)O)cc1` [Example 28, 4-((S)-1-((R)-2-((2,2-difluorobenzo[d][1,3]dioxol-5-yl)methoxy)-3-methylbutanamido)ethyl)benzoic acid], the Ki is 0.151 nM. For the compound `CC(C)[C@@H](OCc1ccc(C(F)F)c(F)c1)C(=O)N[C@@H](C)c1ccc(C(=O)O)cc1` [Example 29, 4-((S)-1-((R)-2-((4-(difluoromethyl)-3-fluorobenzyl)oxy)-3-methylbutanamido)ethyl)benzoic acid], the Ki is 0.603 nM. With `CC(C)[C@@H](OCc1ccc(C2CC2)cc1)C(=O)N[C@@H](C)c1ccc(C(=O)O)cc1` [Example 30, 4-((S)-1-((R)-2-((4-cyclopropylbenzyl)oxy)-3-methylbutanamido)ethyl)benzoic acid] the figure was 5.37 nM; with `CC(C)[C@@H](OCc1ccc(F)cc1)C(=O)NC1(c2ccc(C(=O)O)cc2)CC1` [Example 31, (R)-4-(1-(2-((4-fluorobenzyl)oxy)-3-methylbutanamido)cyclopropyl)benzoic acid], 2.24 nM. With `CC(C)[C@@H](OCc1ccc(F)c(OC(F)F)c1)C(=O)N[C@@H](C)c1ccc(C(=O)O)cc1` [Example 32, 4-((S)-1-((R)-2-((3-(difluoromethoxy)-4-fluorobenzyl)oxy)-3-methylbutanamido)ethyl)benzoic acid] the figure was 0.224 nM; with `CC(C)[C@@H](OCc1cccc(S(C)(=O)=O)c1)C(=O)NC1(c2ccc(C(=O)O)cc2)CC1` [Example 33, (R)-4-(1-(3-methyl-2-((3-(methylsulfonyl)benzyl)oxy)butanamido)cyclopropyl)benzoic acid], 14.5 nM. The result for `CC(C)[C@@H](OCc1ccc(C(F)F)cn1)C(=O)N[C@@H](C)c1ccc(C(=O)O)cc1` [Example 34, 4-((S)-1-((R)-2-((5-(difluoromethyl)pyridin-2-yl)methoxy)-3-methylbutanamido)ethyl)benzoic acid] reads 20.9 nM.

On to `CC(C)[C@@H](OCc1ccc(F)c(S(C)(=O)=O)c1)C(=O)N[C@@H](C)c1ccc(C(=O)O)cc1` [Example 35, 4-((S)-1-((R)-2-((4-fluoro-3-(methylsulfonyl)benzyl)oxy)-3-methylbutanamido)ethyl)benzoic acid], for which the Ki is 7.41 nM. With `Cc1cc([C@H](C)NC(=O)[C@H](OCc2ccc(C(F)(F)F)cc2)C(C)C)ccc1C(=O)O` [Example 36, 2-methyl-4-((S)-1-((R)-3-methyl-2-((4-(trifluoromethyl)benzyl)oxy)butanamido)ethyl)benzoic acid] the figure was 25.7 nM. The result for `CC(C)[C@@H](OCc1ccc(F)c(F)c1)C(=O)NC1(c2ccc(C(=O)O)cc2)CC1` [Example 37, (R)-4-(1-(2-((3,4-difluorobenzyl)oxy)-3-methylbutanamido)cyclopropyl)benzoic acid] reads 1.23 nM; that for `CC(C)[C@@H](OCc1cccc(O)c1)C(=O)N[C@@H](C)c1ccc(C(=O)O)cc1` [Example 38, 4-((S)-1-((R)-2-((3-hydroxybenzyl)oxy)-3-methylbutanamido)ethyl)benzoic acid], above 4680 nM. In the case of `CC(C)[C@@H](OCc1cccc(C2CC2)c1)C(=O)N[C@@H](C)c1ccc(C(=O)O)cc1` [Example 39, 4-((S)-1-((R)-2-((3-cyclopropylbenzyl)oxy)-3-methylbutanamido)ethyl)benzoic acid], the Ki is 0.229 nM.

In the case of `COCc1cccc(CO[C@@H](C(=O)N[C@@H](C)c2ccc(C(=O)O)cc2)C(C)C)c1` [Example 40, 4-((S)-1-((R)-2-((3-(methoxymethyl)benzyl)oxy)-3-methylbutanamido)ethyl)benzoic acid], the Ki is 1.66 nM. Turning to `CC(C)[C@@H](OCc1ccc(O)cc1)C(=O)N[C@@H](C)c1ccc(C(=O)O)cc1` [Example 41, 4-((S)-1-((R)-2-((4-hydroxybenzyl)oxy)-3-methylbutanamido)ethyl)benzoic acid], the Ki is above 12900 nM. On to `CC(C)[C@@H](OCc1ccc(F)cc1)C(=O)N[C@@H](C)c1ccc(-c2nnn[nH]2)cc1` [Example 42, (R)—N—((S)-1-(4-(1H-tetrazol-5-yl)phenyl)ethyl)-2-((4-fluorobenzyl)oxy)-3-methylbutanamide], for which the Ki was 1.74 nM.

As to `CC(C)[C@@H](OCc1ccc(C(F)(F)F)cc1)C(=O)N[C@@H](C)c1ccc(-c2nnn[nH]2)cc1` [Example 43, (R)—N—((S)-1-(4-(1H-tetrazol-5-yl)phenyl)ethyl)-3-methyl-2-((4-(trifluoromethyl)benzyl)oxy)butanamide], the Ki is 0.501 nM.

On to `CC(C)[C@@H](OCc1cccc(CO)c1)C(=O)N[C@@H](C)c1ccc(C(=O)O)cc1` [Example 45, 4-((S)-1-((R)-2-((3-(hydroxymethyl)benzyl)oxy)-3-methylbutanamido)ethyl)benzoic acid], for which the Ki was 10 nM. As to `CC(C)[C@@H](OCc1cccc(Cl)c1)C(=O)NC1(c2ccc(C(=O)O)cc2)CC1` [Example 50, (R)-4-(1-(2-((3-chlorobenzyl)oxy)-3-methylbutanamido)cyclopropyl)benzoic acid], the Ki is above 12900 nM. In the case of `CC(C)[C@@H](OCc1cccc(OC(F)F)c1)C(=O)NC1(c2ccc(C(=O)O)cc2)CC1` [Example 52, (R)-4-(1-(2-((3-(difluoromethoxy)benzyl)oxy)-3-methylbutanamido)cyclopropyl)benzoic acid], the Ki is 0.389 nM.
